# Data taken from patent US6777428B1, “5-HT1f agonist” (Eli Lilly and Company, priority 1999, dated 2004).
# Where a name gives a salt, the structure may show the parent alone.
row,Compound,melting point
1,CN1CCC(C(=O)c2cccc(NC(=O)c3ccc(F)cc3F)c2)CC1 (as salt: hydrochloride),181 to 183 °C
2,CN1CCC(C(=O)c2cccc(NC(=O)c3ccc(O)cc3)c2)CC1 (as salt: hydrochloride),> 200 °C
3,CN1CCC(C(=O)c2cccc(NC(=O)c3ccncc3)c2)CC1 (as salt: hydrochloride),> 200 °C

# The next lines start with the values.
row,melting point,Compound
1,208 to 210 °C,Cl.Nc1cccc(C(=O)C2CCNCC2)c1
2,> 250 °C,CN1CCC(C(=O)c2cccc(NC(=O)c3ccc(F)cc3I)c2)CC1.Cl
3,> 225 °C,O=C(Nc1cccc(C(=O)C2CCNCC2)c1)c1ccc(F)cc1 (as salt: hydrochloride)
4,> 200 °C,CN1CCC(C(=O)c2cccc(NC(=O)c3ccco3)c2)CC1 (as salt: hydrochloride)
